Tested on: human coronary artery endothelial cells (CEC)
Experiment: CEC proliferation on coated multiplate (WST-1)
Assay type: cell-based
Parameters: reference not given here
Settings: substance as plate coating, 3 days
Experimental: A polystyrene 96-well multiplate was coated with aqueous P-I-20 or P-N-12 solutions (0.5 mg/ml) of the present invention, and also 2% gelatin and 10 μg/ml of human fibronectin solution, these were inoculated with 6,000 human coronary artery endothelial cells (CEC) suspended in a Dulbecco modified Eagle medium (10% fetal bovine serum added), after which FGF2 or VEGF165 were added as cell growth factors, and this was cultured from 3 days. After culturing, a WST-1 reagent (cell counting kit, Dojindo) was used to count the number of increased cells, and the results of an evaluation of the proliferation rate are shown in Table 1.

| Substance | CEC Proliferation Rate (FGF2 4 μg/l) | CEC Proliferation Rate (FGF2 8 μg/l) | CEC Proliferation Rate (VEGF165 4 μg/l) | CEC Proliferation Rate (VEGF165 8 μg/l) |
| --- | --- | --- | --- | --- |
| Fibronectin | 273 | 327 | 371 | 436 |
| Gelatin | 356 | 389 | 335 | 385 |

Source: patent publication US7005513B1, “Functionalized glycosaminoglycan polymer and medical instruments and drugs by using the same” (Netech, Inc., priority 1999, dated 2006)
